Values of other authors, collected in patent publication US8575311B2, “Collagen peptide conjugates and uses therefor” (Purdue Research Foundation, priority 2008, dated 2013).

Conditions: comparison value, conditions not given

Substance: (Pro-Hyp-Gly)9
- Tm of comparison peptide: 67 °C
